Data as given in patent publication US12605411B2, “Phospholipid compositions for delivery of therapeutic compounds” (Aker BioMarine Human Ingredients AS, priority 2022, dated 2026).
In brackets after ≈: the same amount, converted by molar mass. Each block holds one molecule with its values, some of them ahead of it.

Tests used:
[1] = Plasma CBD concentration after dosing (FIG. 5); format: in vivo
[2] = humans, taken orally; cited from earlier work
[3] = CoQ10 absorption in plasma after single dose, clinical study; format: in vivo, human
Description: The purpose of the study was to investigate compare the CoQ10 level of absorption in the plasma of a phospholipid krill oil+CoQ10 product to a comparator CoQ10-product (without any krill oil).
Absorption levels of CoQ10 in plasma were measured at time (T)=0, 2, 4, 6 and 8 hours after the single-dose (2 soft gels) intake of the study products. A 7-day minimum washout period between the two doses was specified.
A total of 13 subjects successfully completed the study.

[4] = cited from earlier work
[5] = cited from earlier work; remark: listed apart in the source

Structure (SMILES): C=C(C)[C@@H]1CCC(C)=C[C@H]1c1c(O)cc(CCCCC)cc1O [CBD, Cannabidiol]
- increase of bioavailability of CBD ([1]; krill oil compared to MCT, FIG. 5): 3 fold
- absorption of CBD (plasma CBD concentration) ([1]; krill oil vs medium chain triglyceride (MCT) oil): much greater extent
- bioavailability [2]: around 6%

- absorption of CoQ10 in plasma, change from baseline (in words) ([3]; 0-8 hours after single dose, 13 subjects): No significant absorption
- Change of plasma CoQ10 from baseline ([3]; 2 hours): −11.49%
- Change of plasma CoQ10 from baseline ([3]; 4 hours): −4.53%
- Change of plasma CoQ10 from baseline ([3]; 6 hours): 1.71%
- Change of plasma CoQ10 from baseline ([3]; 8 hours): 6.15%
- concentration at 2 h ([3]; human, plasma, oral, 2 soft gels, 2 hours after single dose): 8780 ng/mL
- concentration at 4 h ([3]; human, plasma, oral, 2 soft gels, 4 hours after single dose): 9570 ng/mL
- concentration at 6 h ([3]; human, plasma, oral, 2 soft gels, 6 hours after single dose): 10100 ng/mL
- concentration at 8 h ([3]; human, plasma, oral, 2 soft gels, 8 hours after single dose): 10500 ng/mL
- concentration at 0 h ([3]; human, plasma, oral, 2 soft gels, Baseline): 9920 ng/mL
Structure (SMILES): COC1=C(OC)C(=O)C(C/C=C(\C)CC/C=C(\C)CC/C=C(\C)CC/C=C(\C)CC/C=C(\C)CC/C=C(\C)CC/C=C(\C)CC/C=C(\C)CC/C=C(\C)CCC=C(C)C)=C(C)C1=O [CoQ10, Coenzyme Q10]

Structure (SMILES): O=c1c(O)c(-c2ccc(O)c(O)c2)oc2cc(O)ccc12 [Fisetin]
- solubility [4]: < 1000 µg/mL
- Solubility ethanol [4]: 5000 µg/mL (≈ 17.5 mM)
- Solubility water ([4]; water): 150 µg/mL (≈ 0.524 mM)
- logP [5]: 1.81-2.03

Structure (SMILES): O=c1c(O)c(-c2ccc(O)c(O)c2)oc2cc(O)cc(O)c12 [Quercetin]
- Solubility ethanol [4]: 2000 µg/mL (≈ 6.62 mM)
- logP [5]: 1.50
